According to ChEMBL document CHEMBL1811903, “Protective role of 14-deoxy-11,12-didehydroandrographolide, a noncytotoxic analogue of andrographolide, in allergic airway inflammation” (J Nat Prod, 2011):
Each block holds one molecule with its values, some of them ahead of it. Active and inactive are the calls of the source. The calls are words filed in the database; no cut-off is given here.

Key:
[1] = test system: Mus musculus; assay: Antiinflammatory activity in BALB/c mouse asthma model assessed as reduction in ovalbumin-induced lymphocyte counts in bronchoalveolar lavage fluid at 1 mg/kg, ip administered 2 hrs before and 10 hrs after ovalbumin challenge measured after 24 hrs by cell counting; format: functional, organism-based; parameters: dose 1 mg/kg; conditions: Lung
[2] = test system: Mus musculus; assay: Inhibition of ovalbumin-induced mast cell degranulation in BALB/c mouse asthma model at 1 mg/kg, ip administered 2 hrs before and 10 hrs after ovalbumin challenge measured after 24 hrs using toluidine blue staining by cell counting; format: functional, organism-based; parameters: dose 1 mg/kg
[3] = test system: Mus musculus; assay: Antiinflammatory activity in ovalbumin-sensitized ip dosed BALB/c mouse asthma model assessed as reduction in IL-4 level in bronchoalveolar lavage fluid administered 2 hrs before and 10 hrs after ovalbumin challenge measured after 24 hrs by ELISA; format: functional, organism-based; conditions: Lung
[4] = test system: Mus musculus; assay: Toxicity in BALB/c mouse assessed as reduction in red blood cell count at 1 mg/kg, ip; format: organism-based; parameters: dose 1 mg/kg, route intraperitoneal; conditions: in vivo
[5] = test system: Mus musculus; assay: Antiinflammatory activity in ovalbumin-sensitized BALB/c mouse asthma model lung assessed as suppression in Muc5ac mRNA level at 1 mg/kg, ip administered 2 hrs before and 10 hrs after ovalbumin challenge measured after 24 hrs by RT-PCR analysis; format: functional, organism-based; parameters: dose 1 mg/kg
[6] = test system: Mus musculus; assay: Antiinflammatory activity in ovalbumin-sensitized BALB/c mouse asthma model lung assessed as suppression in MCP-1 mRNA level at 1 mg/kg, ip administered 2 hrs before and 10 hrs after ovalbumin challenge measured after 24 hrs by RT-PCR analysis; format: functional, organism-based; parameters: dose 1 mg/kg
[7] = test system: Mus musculus; assay: Antiinflammatory activity in ovalbumin-sensitized ip dosed BALB/c mouse asthma model assessed as reduction in IL-5 level in bronchoalveolar lavage fluid administered 2 hrs before and 10 hrs after ovalbumin challenge measured after 24 hrs by ELISA; format: functional, organism-based; conditions: Lung
[8] = test system: Mus musculus; assay: Antiinflammatory activity in ovalbumin-sensitized BALB/c mouse asthma model assessed as reduction in mucus production in lung at 1 mg/kg, ip administered 2 hrs before and 10 hrs after ovalbumin challenge measured after 24 hrs using PAS staining by histologic analysis; format: functional, organism-based; parameters: dose 1 mg/kg
[9] = target: Transcription factor p65 (Homo sapiens) (UniProt Q04206); assay: Inhibition of NF-kappaB p65 subunit translocation in TNFalpha-stimulated human A549 cells assessed as reduction in p65 level in nuclear extract at 30 uM after 24 hrs by immunoblotting; format: cell-based
Transcription factor p65 (Homo sapiens), sequence (Q04206 whole entry): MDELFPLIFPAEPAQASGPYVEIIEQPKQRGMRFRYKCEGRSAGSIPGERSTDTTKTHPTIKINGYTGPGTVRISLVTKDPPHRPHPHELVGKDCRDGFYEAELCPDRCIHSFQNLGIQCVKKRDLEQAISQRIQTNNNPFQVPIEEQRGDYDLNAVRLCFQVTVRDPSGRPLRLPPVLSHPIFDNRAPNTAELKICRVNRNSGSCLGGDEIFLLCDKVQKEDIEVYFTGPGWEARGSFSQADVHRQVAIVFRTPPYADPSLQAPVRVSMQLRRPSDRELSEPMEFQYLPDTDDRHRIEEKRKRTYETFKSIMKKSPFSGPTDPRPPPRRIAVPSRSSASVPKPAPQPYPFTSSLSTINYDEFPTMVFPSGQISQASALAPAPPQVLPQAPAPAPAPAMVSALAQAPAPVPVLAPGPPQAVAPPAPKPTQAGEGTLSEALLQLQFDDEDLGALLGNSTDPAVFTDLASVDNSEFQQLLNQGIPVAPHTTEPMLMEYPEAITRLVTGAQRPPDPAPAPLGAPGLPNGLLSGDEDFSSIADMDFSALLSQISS

[10] = test system: Mus musculus; assay: Antiinflammatory activity in ovalbumin-sensitized BALB/c mouse asthma model lung assessed as suppression in IL-33 mRNA level at 1 mg/kg, ip administered 2 hrs before and 10 hrs after ovalbumin challenge measured after 24 hrs by RT-PCR analysis; format: functional, organism-based; parameters: dose 1 mg/kg
[11] = Cytotoxicity against human BEAS2B cells assessed as reduction in cell viability at 3 to 120 uM after 24 to 48 hrs by MTS assay; format: cell-based; conditions: beas-2b
[12] = test system: A549; assay: Cytotoxicity against human A549 cells assessed as reduction in cell viability at 3 to 120 uM after 24 to 48 hrs by MTS assay; format: cell-based; conditions: a549, 120 µM
[13] = test system: Mus musculus; assay: Antiinflammatory activity in ovalbumin-sensitized ip dosed BALB/c mouse asthma model assessed as reduction in IL-13 level in bronchoalveolar lavage fluid administered 2 hrs before and 10 hrs after ovalbumin challenge measured after 24 hrs by ELISA; format: functional, organism-based; conditions: Lung
[14] = test system: Mus musculus; assay: Antiinflammatory activity in ovalbumin-sensitized BALB/c mouse asthma model assessed as reduction in methacholine-induced distensibility of the lung at 1 mg/kg, ip administered 2 hrs before and 10 hrs after ovalbumin challenge; format: functional, organism-based; parameters: dose 1 mg/kg
[15] = test system: RBL-2H3; assay: Cytotoxicity against rat RBL2H3 cells assessed as reduction in cell viability at 3 to 120 uM after 24 to 48 hrs by MTS assay; format: cell-based; conditions: rbl-2h3, 120 µM
[16] = test system: Mus musculus; assay: Antiinflammatory activity in ovalbumin-sensitized BALB/c mouse asthma model lung assessed as suppression in […] mRNA level at 1 mg/kg, ip administered 2 hrs before and 10 hrs after ovalbumin challenge measured after 24 hrs by RT-PCR analysis; format: functional, organism-based; parameters: dose 1 mg/kg
[17] = test system: Mus musculus; assay: Toxicity in BALB/c mouse assessed as reduction in white blood cell count at 1 mg/kg, ip; format: organism-based; parameters: dose 1 mg/kg, route intraperitoneal; conditions: in vivo
[18] = test system: Mus musculus; assay: Antiinflammatory activity in ovalbumin-sensitized BALB/c mouse asthma model assessed as reduction in IgG2a level in serum at 0.1 to 1 mg/kg, ip administered 2 hrs before and 10 hrs after ovalbumin challenge measured after 24 hrs by ELISA; format: functional, organism-based
[19] = test system: Mus musculus; assay: Antiinflammatory activity in ovalbumin-sensitized BALB/c mouse asthma model lung assessed as suppression in AMCase mRNA level at 1 mg/kg, ip administered 2 hrs before and 10 hrs after ovalbumin challenge measured after 24 hrs by RT-PCR analysis; format: functional, organism-based; parameters: dose 1 mg/kg
[20] = test system: Mus musculus; assay: Antiinflammatory activity in ovalbumin-sensitized ip dosed BALB/c mouse asthma model assessed as reduction in eotaxin level in bronchoalveolar lavage fluid administered 2 hrs before and 10 hrs after ovalbumin challenge measured after 24 hrs by ELISA; format: functional, organism-based; conditions: Lung
[21] = test system: Mus musculus; assay: Antiinflammatory activity in ovalbumin-sensitized BALB/c mouse asthma model lung assessed as Inhibition of NF-kappaB p65 subunit nuclear translocation at 1 mg/kg, ip administered 2 hrs before and 10 hrs after ovalbumin challenge measured after 24 hrs by immunoblotting; format: functional, organism-based; parameters: dose 1 mg/kg
[22] = test system: RBL-2H3; assay: Inhibition of IgE-mediated rat RBL2H3 cell degranulation assessed as inhibition of beta-hexosaminidase release; format: functional, cell-based
[23] = test system: Mus musculus; assay: Antiinflammatory activity in ovalbumin-sensitized BALB/c mouse asthma model lung assessed as suppression in E-selectin mRNA level at 1 mg/kg, ip administered 2 hrs before and 10 hrs after ovalbumin challenge measured after 24 hrs by RT-PCR analysis; format: functional, organism-based; parameters: dose 1 mg/kg
[24] = test system: Mus musculus; assay: Antiinflammatory activity in ovalbumin-sensitized BALB/c mouse asthma model lung assessed as suppression in Ym-2 mRNA level at 1 mg/kg, ip administered 2 hrs before and 10 hrs after ovalbumin challenge measured after 24 hrs by RT-PCR analysis; format: functional, organism-based; parameters: dose 1 mg/kg
[25] = test system: Mus musculus; assay: Antiinflammatory activity in ovalbumin-sensitized BALB/c mouse asthma model lung assessed as reduction in NF-kappaB DNA binding activity at 1 mg/kg, ip administered 2 hrs before and 10 hrs after ovalbumin challenge measured after 24 hrs by immunoblotting; format: functional, organism-based; parameters: dose 1 mg/kg
[26] = test system: Mus musculus; assay: Antiinflammatory activity in ovalbumin-sensitized BALB/c mouse asthma model assessed as reduction in goblet cell hyperplasia at 1 mg/kg, ip administered 2 hrs before and 10 hrs after ovalbumin challenge measured after 24 hrs using hematoxylin and eosin staining by histologic analysis; format: functional, organism-based; parameters: dose 1 mg/kg
[27] = test system: Mus musculus; assay: Antiinflammatory activity in ip dosed BALB/c mouse asthma model assessed as reduction in ovalbumin-induced total cell counts in bronchoalveolar lavage fluid administered 2 hrs before and 10 hrs after ovalbumin challenge measured after 24 hrs by cell counting; format: functional, organism-based; conditions: Lung
[28] = test system: Mus musculus; assay: Antiinflammatory activity in ovalbumin-sensitized BALB/c mouse asthma model assessed as reduction in IgG1 level in serum at 0.1 to 1 mg/kg, ip administered 2 hrs before and 10 hrs after ovalbumin challenge measured after 24 hrs by ELISA; format: functional, organism-based
[29] = test system: Mus musculus; assay: Antiinflammatory activity in ovalbumin-sensitized BALB/c mouse asthma model lung assessed as suppression in VCAM-1 mRNA level at 1 mg/kg, ip administered 2 hrs before and 10 hrs after ovalbumin challenge measured after 24 hrs by RT-PCR analysis; format: functional, organism-based; parameters: dose 1 mg/kg
[30] = test system: Mus musculus; assay: Antiinflammatory activity in ovalbumin-sensitized BALB/c mouse asthma model lung assessed as suppression in Ym-1 mRNA level at 1 mg/kg, ip administered 2 hrs before and 10 hrs after ovalbumin challenge measured after 24 hrs by RT-PCR analysis; format: functional, organism-based; parameters: dose 1 mg/kg
[31] = test system: Mus musculus; assay: Toxicity in BALB/c mouse assessed as reduction in hematocrit at 1 mg/kg, ip; format: organism-based; parameters: dose 1 mg/kg, route intraperitoneal; conditions: in vivo
[32] = test system: Mus musculus; assay: Antiinflammatory activity in ovalbumin-sensitized BALB/c mouse asthma model assessed as reduction in total IgE level in serum at 0.1 to 1 mg/kg, ip administered 2 hrs before and 10 hrs after ovalbumin challenge measured after 24 hrs by ELISA; format: functional, organism-based
[33] = test system: Mus musculus; assay: Antiinflammatory activity in ovalbumin-sensitized BALB/c mouse asthma model lung assessed as suppression in COX-2 mRNA level at 1 mg/kg, ip administered 2 hrs before and 10 hrs after ovalbumin challenge measured after 24 hrs by RT-PCR analysis; format: functional, organism-based; parameters: dose 1 mg/kg
[34] = target: Transcription factor p65 (Homo sapiens) (UniProt Q04206); assay: Inhibition of NF-kappaB p65 subunit in TNFalpha-stimulated human A549 cells assessed as reduction in DNA binding activity at 30 uM after 24 hrs by ELISA; format: cell-based
[35] = test system: Mus musculus; assay: Antiinflammatory activity in BALB/c mouse asthma model assessed as reduction in ovalbumin-induced macrophage counts in bronchoalveolar lavage fluid at 1 mg/kg, ip administered 2 hrs before and 10 hrs after ovalbumin challenge measured after 24 hrs by cell counting; format: functional, organism-based; parameters: dose 1 mg/kg; conditions: Lung
[36] = test system: Mus musculus; assay: Antiinflammatory activity in ip dosed BALB/c mouse asthma model assessed as reduction in ovalbumin-induced eosinophil counts in bronchoalveolar lavage fluid administered 2 hrs before and 10 hrs after ovalbumin challenge measured after 24 hrs by cell counting; format: functional, organism-based; conditions: Lung
[37] = test system: Mus musculus; assay: Antiinflammatory activity in ovalbumin-sensitized BALB/c mouse asthma model assessed as reduction in IgE level in serum at 0.1 to 1 mg/kg, ip administered 2 hrs before and 10 hrs after ovalbumin challenge measured after 24 hrs by ELISA; format: functional, organism-based
[38] = test system: Mus musculus; assay: Toxicity in BALB/c mouse assessed as reduction in hemoglobin concentration at 1 mg/kg, ip; format: organism-based; parameters: dose 1 mg/kg, route intraperitoneal; conditions: in vivo
[39] = test system: Mus musculus; assay: Antiinflammatory activity in ovalbumin-sensitized BALB/c mouse asthma model lung assessed as suppression in IL-17 mRNA level at 1 mg/kg, ip administered 2 hrs before and 10 hrs after ovalbumin challenge measured after 24 hrs by RT-PCR analysis; format: functional, organism-based; parameters: dose 1 mg/kg
[40] = test system: Mus musculus; assay: Antiinflammatory activity in ovalbumin-sensitized BALB/c mouse asthma model assessed as reduction in methacholine-induced maximum total lung resistance at 1 mg/kg, ip administered 2 hrs before and 10 hrs after ovalbumin challenge; format: functional, organism-based; parameters: dose 1 mg/kg
[41] = test system: RBL-2H3; assay: Cytotoxicity against rat RBL2H3 cells assessed as reduction in cell viability after 24 hrs by MTS assay; format: cell-based; conditions: rbl-2h3, 24 h
[42] = test system: A549; assay: Cytotoxicity against human A549 cells assessed as reduction in cell viability after 24 hrs by MTS assay; format: cell-based; conditions: a549, 24 h
[43] = Cytotoxicity against human BEAS2B cells assessed as reduction in cell viability at 3 to 120 uM by MTS assay; format: cell-based; conditions: beas-2b, TDE = time-dependent effect
[44] = test system: A549; assay: Cytotoxicity against human A549 cells assessed as reduction in cell viability after 48 hrs by MTS assay; format: cell-based; conditions: a549, 48 h
[45] = Cytotoxicity against human BEAS2B cells assessed as reduction in cell viability after 48 hrs by MTS assay; format: cell-based; conditions: beas-2b
[46] = Cytotoxicity against human BEAS2B cells assessed as reduction in cell viability after 24 hrs by MTS assay; format: cell-based; conditions: beas-2b
[47] = test system: RBL-2H3; assay: Cytotoxicity against rat RBL2H3 cells assessed as reduction in cell viability at 3 to 120 uM by MTS assay; format: cell-based; conditions: rbl-2h3, 120 µM, TDE = time-dependent effect
[48] = test system: RBL-2H3; assay: Cytotoxicity against rat RBL2H3 cells assessed as reduction in cell viability after 48 hrs by MTS assay; format: cell-based; conditions: rbl-2h3, 48 h
[49] = test system: A549; assay: Cytotoxicity against human A549 cells assessed as reduction in cell viability at 3 to 120 uM by MTS assay; format: cell-based; conditions: a549, 120 µM, TDE = time-dependent effect

inhibition [9]: Active
inhibition [34]: Active
SMILES: C=C1CC[C@@H]2[C@](C)(CO)[C@H](O)CC[C@@]2(C)[C@@H]1/C=C/C1=CCOC1=O
Activity [1]: Active
inhibition [2]: inactive
Activity [3]: Dose-dependent effect
Activity [4]: Non-toxic
Activity [5]: Active
Activity [6]: Active
Activity [7]: Dose-dependent effect
Activity [8]: Active
Activity [10]: Active
Activity [11]: Non-toxic
Activity [12]: Non-toxic
Activity [13]: Dose-dependent effect
Activity [14]: Active
Activity [15]: Non-toxic
Activity [16]: Active
Activity [17]: Non-toxic
Activity [18]: inactive
Activity [19]: Active
Activity [20]: Dose-dependent effect
inhibition [21]: Active
inhibition [22]: inactive
Activity [23]: Active
Activity [24]: Active
Activity [25]: Active
Activity [26]: Active
Activity [27]: Dose-dependent effect
Activity [28]: Active
Activity [29]: Active
Activity [30]: Active
Activity [31]: Non-toxic
Activity [32]: Active
Activity [33]: Active
Activity [35]: Active
Activity [36]: Dose-dependent effect
Activity [37]: Active
Activity [38]: Non-toxic
Activity [39]: Active
Activity [40]: Active

SMILES: C=C1CC[C@@H]2[C@](C)(CO)[C@H](O)CC[C@@]2(C)[C@@H]1C/C=C1/C(=O)OC[C@H]1O [ANDROGRAPHOLIDE]
Activity [41]: Dose-dependent effect
Activity [42]: Dose-dependent effect
Activity [43]: tde
Activity [44]: Dose-dependent effect
Activity [45]: Dose-dependent effect
Activity [46]: Dose-dependent effect
Activity [47]: tde
Activity [48]: Dose-dependent effect
Activity [49]: tde
